The values that follow are results of earlier work, collected in patent publication US20230181552A1, “EXTERNAL PREPARATION OF IMIDACLOPRID, PREPARATION METHOD AND USE THEREOF” (Qingdao Bolin Biological Technology Co., Ltd., priority 2021, published 2023).

One series concerns rabbits, mice and rats. As to conditions: sublethal doses, systemic use.
In series [1] the test system is postsynaptic nicotinic acetylcholine receptors in the central nervous system of insects. To be noted: background statement.
For series [2], the system named is nicotinic receptor sites of mammals. As to conditions: background statement.

In the case of `O=[N+]([O-])NC1=NCCN1Cc1ccc(Cl)nc1` [Imidacloprid, imidacloprid], the “pharmacological activity in mammals” value in the series with rabbits, mice and rats was “little pharmacological activity”. Besides, the “affinity for postsynaptic nicotinic acetylcholine receptors in the central nervous system of insects” value in series [1] is “high affinity”. In series [2], the “affinity to nicotinic receptor sites of mammals” value is “weak affinity”.
